Data from patent US11365183B2, “Eicosanoid derivatives” (MAX-DELBRUECK-CENTRUM FUER MOLEKULARE MEDIZIN, priority 2009, dated 2022).

Tests used:
[1] = tested on: neonatal rat cardiomyocytes (NRCMs); experiment: Chronotropic effect on spontaneous beating rate of cultured neonatal rat cardiomyocytes (identification of agonists); type: cell-based; conditions: 30 nM, incubation time 5 min
Description: This negative chronotropic effect reflects the capacity of the analogs to interact with and to activate a G-protein coupled receptor or other primary cellular targets that reduce the contractility of cardiomyocytes under basal and stress-induced conditions.
The compounds included EPA and 17,18-EETeTr (compounds 01 and 02; purchased from Cayman Chemical) as well as all but one (compound 16) of the analogs synthesized as described in examples 1-24. The R,S— and S,R-enantiomers of 17,18-EETeTr (compounds 03 and 04) were prepared resolving the racemic mixture (compound 02) by means of chiral-phase HPLC as described previously (Barbosa-Sicard E, Markovic M, Honeck H, Christ B, Muller D N, Schunck W H. Biochem Biophys Res Commun. 2005 Apr. 22; 329(4):1275-81). Before use, the compounds to be tested were prepared as 1000-fold stock solutions in ethanol.
Isolation and cultivation of NRCMs were performed as described previously (Wallukat, G; Wollenberger, A. Biomed Biochim Acta. 1987; 78:634-639; Wallukat G, Homuth V, Fischer T, Lindschau C, Horstkamp B, Jupner A, Baur E, Nissen E, Vetter K, Neichel D, Dudenhausen J W, Haller H, Luft F C. J Clin Invest. 1999; 103: 945-952). Briefly, neonatal Wistar rats (1-2 days old) were killed in conformity to the recommendations of the Community of Health Service of the City of Berlin and the cardiomyocytes were dissociated from the minced ventricles with a 0.2% solution of crude trypsin. The isolated cells were then cultured as monolayers on the bottom (12.5 cm^2) of Falcon flasks in 2.5 ml of Halle S M 20-I medium equilibrated with humidified air. The medium contained 10% heat-inactivated FCS and 2 μmol/l fluoro-deoxyuridine (Serva, Heidelberg, Germany), the latter to prevent proliferation of non-muscle cells. The NRCMs (2.4×10^6 cells/flask) were cultured at 37° C. in an incubator. After 5 to 7 days, the NRCMs formed spontaneously beating cell clusters. […] On the day of the experiment, the culture medium was replaced by 2.0 ml fresh serum-containing medium. Two hours later, the beating rates were monitored at 37° C. using an inverted microscope equipped with a heating stage. To determine the basal rate, 6 to 8 individual clusters were selected and the number of contractions was counted for 15 sec. After that, the compound to be tested was added to the culture and the beating rate of the same clusters was monitored 5 min later again. Based on the difference between the basal and compound-induced beating rate of the individual clusters, the chronotropic effects (Δ beats/min) were calculated and are given as mean±SE values. N refers to the number of clusters monitored which originated, in general, from at least three independent NRCM cultures.
This effect was fully expressed using an EPA concentration of 3.3 μM and an incubation time of 30 min. In contrast, 17,18-EETeTr (C02) produced the same effect almost immediately and already in the low nanomolar range (EC50 of 1-2 nM, data not shown). To compare the activity of 17,18-EETeTr with that of its synthetic analogs, all these compounds were tested at a final concentration of 30 nM and using an incubation time of 5 min.

[2] = tested on: neonatal rat cardiomyocytes (NRCMs); experiment: Response of NRCMs to increased extracellular Ca2+ and ß-adrenergic stimulation; type: cell-based; conditions: 30 nM added 5 min before
Method: Compound C11 was synthesized as described above (example 11). NRCMs were isolated and cultured as in Example 19. The basal Ca^2+-concentration of the medium was 1.2 mM. Increased extracellular Ca^2+-concentrations (2.2, 5.2 and 8.2 mM) were adjusted by adding appropriate amounts of a 1 M CaCl2 solution to the cultures. Isoproterenol (from Sigma-Aldrich) was used as ß-adrenoreceptor agonist and added to the cultures to give final concentrations of 0.1, 1 or 10 μM. C11 was used at a final concentration of 30 nM and added to the cultures 5 min before changing the Ca^2+-concentration or adding isoproterenol. Controls were performed in the absence of C11.

melting point: 83.1 to 83.3 °C
Compound: CCNC(=O)NCCCC/C=C\CCCCCCCCCC(=O)O [Compound C11, 16-(3-Ethylureido)hexadec-11(Z)-enoic Acid]
chronotropic effect (Δ beats/min), mean±SE ([1]; NRCM clusters): −27.0±1.2 beats/min
agonistic / chronotropic effect on NRCMs, in words ([1]; compound alone): Agonists
beating rate of NRCMs at basal and increased extracellular Ca2+ ([2]; 1.2 mM Ca2+ and up to 8.2 mM): significantly reduced
response of NRCMs to increasing concentrations of isoproterenol ([2]; isoproterenol 0.1, 1 or 10 μM): reduced the response
